According to US11279711B2, “Condensed heterocyclic derivates as BCL-2 inhibitors for the treatment of neoplastic diseases” (Newave Pharmaceutical Inc., priority 2017, dated 2022):
pEC50, pIC50, pKi: −log10 of the molar value.

What was measured:
CLL = details: read-out: average EC50, apoptosis in CLL; cited from earlier work
[1] = tested on: BCL-2-dependent acute lymphoblastic leukemia (ALL) cell line RS4;11; test: In vitro anti-proliferation assay (ATPlite) in RS4;11; assay type: cell-based; details: Homo sapiens; RS4;11, 5% FBS, about 72 hours; read-out: IC50, RS4; 115% FBS
Experimental: Biological Example 2: In Vitro Anti-Proliferation Assay in BCL-2-Dependent Acute Lymphoblastic Leukemia (ALL) Cell Line RS4;11
(§1) Cell antiproliferation was assayed by PerkinElmer ATPlite™ Luminescence Assay System. Briefly, the various test cancer cell lines were plated at a density of about 1×10^4 cells per well in Costar 96-well plates, and were incubated with different concentrations of compounds for about 72 hours in medium supplemented with 5% FBS or 10% normal human serum (NHS). One lyophilized substrate solution vial was then reconstituted by adding 5 mL of substrate buffer solution, and was agitated gently until the solution was homogeneous. About 50 μL of mammalian cell lysis solution was added to 100 μL of cell suspension per well of a microplate, and the plate was shaken for about five minutes in an orbital shaker at −700 rpm. This procedure was used to lyse the cells and to stabilize the ATP. Next, 50 μL substrate solution was added to the wells and microplate was shaken for five minutes in an orbital shaker at ˜700 rpm. Finally, the luminescence was measured by a PerkinElmer TopCount® Microplate Scintillation Counter. Such assays, carried out with a range of doses of test compounds, allowed the determination of the cellular anti-antiproliferative IC50 of the compounds of the present invention. The following table lists the IC50 values of certain compounds of the invention.

RS4;11 cells = details: cited from earlier work
Toledo = test: In vitro anti-proliferation assay (ATPlite), Toledo; assay type: cell-based; details: Homo sapiens, 5% FBS, about 72 hours
Experimental: (§2) Biological Example 3: In Vitro Anti-Proliferation Assay in Small Cell Lung Cancer (SCLC) Cell Line
as §1, with “FBS.” for “FBS or 10% normal human serum (NHS).”, “˜700” for “−700”, “invention.” for “invention. The following table lists the IC50 values of certain compounds of the invention.”

Granta = test: In vitro anti-proliferation assay (ATPlite), Granta; assay type: cell-based; details: 5% FBS, about 72 hours
Experimental: as §2
as §1, with “FBS.” for “FBS or 10% normal human serum (NHS).”, “˜700” for “−700”, “invention.” for “invention. The following table lists the IC50 values of certain compounds of the invention.”

Mcl-1 = Mcl-1 (Homo sapiens, UniProt Q07820); details: cited from earlier work
MV411 = test: In vitro anti-proliferation assay (ATPlite), MV411; assay type: cell-based; details: Homo sapiens, MV4-11; 5% FBS, about 72 hours
Experimental: as §2
as §1, with “FBS.” for “FBS or 10% normal human serum (NHS).”, “˜700” for “−700”, “invention.” for “invention. The following table lists the IC50 values of certain compounds of the invention.”

RS4;11 xenografts = details: single dose of 100 mg/kg; cited from earlier work
SCLC H146 cell line = details: read-out: IC50 against SCLC H146 cell line; cited from earlier work
H889 = test: In vitro anti-proliferation assay (ATPlite), small cell lung cancer cell line H889; assay type: cell-based; details: 5% FBS, about 72 hours
Experimental: as §2
as §1, with “FBS.” for “FBS or 10% normal human serum (NHS).”, “˜700” for “−700”, “invention.” for “invention. The following table lists the IC50 values of certain compounds of the invention.”
(§3) Cisplatin, the standard of Care of small cell lung cancer cell lines was used as the positive control drug.

H345 xenograft = details: 100 mg/kg/day, H345 xenograft model; cited from earlier work
Bcl-w = target: T1, Bcl-w (Homo sapiens, UniProt Q92843); details: cited from earlier work
T1 sequence (Q92843 1-193): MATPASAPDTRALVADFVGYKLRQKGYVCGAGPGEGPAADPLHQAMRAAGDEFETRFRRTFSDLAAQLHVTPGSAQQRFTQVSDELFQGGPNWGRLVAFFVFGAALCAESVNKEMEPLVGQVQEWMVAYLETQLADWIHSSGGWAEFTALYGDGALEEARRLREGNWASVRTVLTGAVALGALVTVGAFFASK

circulating platelets = details: clinical trial; dose-limiting thrombocytopenia; cited from earlier work
[2] = tested on: xenograft models of small-cell lung cancer and acute lymphoblastic leukemia; details: oral administration, alone; cited from earlier work
H1963 = test: In vitro anti-proliferation assay (ATPlite), small cell lung cancer cell line H1963; assay type: cell-based; details: 5% FBS, about 72 hours
Experimental: as §2
as §1, with “FBS.” for “FBS or 10% normal human serum (NHS).”, “˜700” for “−700”, “invention.” for “invention. The following table lists the IC50 values of certain compounds of the invention.”
as §3

H146 = test: In vitro anti-proliferation assay (ATPlite), small cell lung cancer cell line H146; assay type: cell-based; details: 5% FBS, about 72 hours
Experimental: as §2
as §1, with “FBS.” for “FBS or 10% normal human serum (NHS).”, “˜700” for “−700”, “invention.” for “invention. The following table lists the IC50 values of certain compounds of the invention.”
as §3

[3] = cited from earlier work
[4] = in vivo; cited from earlier work
[5] = Mice PK study, oral dosing; assay type: in vivo; details: CD-1 mouse, 10 mg/kg; for AUC(0-t) / bioavailability / half-life: plasma; for bioavailability: read-out: Bioavailabilty; for half-life: read-out: t ½ (converted)
Experimental: Biological Example 4: Mice PK Study
The pharmacokinetics of compounds were evaluated in CD-1 mouse via Intravenous and Oral Administration. The IV dose was administered as a slow bolus in the Jugular vein, and oral doses were administered by gavage. The formulation for IV dosing was 5% DMSO in 20% HPBCD in water, and the PO formulation was 2.5% DMSO, 10% EtOH, 20% Cremphor EL, 67.5% D5W. The PK time point for the IV arm was 5, 15, 30 min, 1, 2, 4, 6, 8, 12, 24 hours post dose, and for PO arm was 15, 30 min, 1, 2, 4, 6, 8, 12, 24 hours post dose. Approximately 0.03 mL blood was collected at each time point. Blood of each sample was transferred into plastic micro centrifuge tubes containing EDTA-K2 and collect plasma within 15 min by centrifugation at 4000 g for 5 minutes in a 4° C. centrifuge. Plasma samples were stored in polypropylene tubes. The samples were stored in a freezer at −75±15° C. prior to analysis. Concentrations of compounds in the plasma samples were analyzed using a LC-MS/MS method. WinNonlin (Phoenix™, version 6.1) or other similar software was used for pharmacokinetic calculations. The following pharmacokinetic parameters were calculated, whenever possible from the plasma concentration versus time data: IV administration: C0, CL, Vd, T1/2, AUCinf, AUClast, MRT, Number of Points for Regression; PO administration: Cmax, Tmax, T1/2, AUCinf, AUClast, F %, Number of Points for Regression. The pharmacokinetic data was described using descriptive statistics such as mean, standard deviation. Additional pharmacokinetic or statistical analysis was performed at the discretion of the contributing scientist, and was documented in the data summary.

Sequence of Mcl-1 (Q07820 whole entry): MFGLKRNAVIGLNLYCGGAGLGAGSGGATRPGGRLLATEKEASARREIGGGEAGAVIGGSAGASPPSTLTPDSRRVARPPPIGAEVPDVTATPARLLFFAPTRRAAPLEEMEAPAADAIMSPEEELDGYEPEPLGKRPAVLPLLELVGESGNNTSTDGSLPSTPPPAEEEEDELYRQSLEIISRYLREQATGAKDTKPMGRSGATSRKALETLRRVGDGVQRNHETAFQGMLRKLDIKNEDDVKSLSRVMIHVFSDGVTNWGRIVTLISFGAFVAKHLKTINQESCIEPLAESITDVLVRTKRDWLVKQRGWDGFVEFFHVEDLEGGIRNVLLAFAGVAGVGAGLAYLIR

Structure (SMILES): CC1(C)CCC(CN2CCN(c3ccc(C(=O)NS(=O)(=O)c4ccc(NCC5CCOCC5)c([N+](=O)[O-])c4)c(Oc4cnc5[nH]ccc5c4)c3)CC2)=C(c2ccc(Cl)cc2)C1 [ABT-199]
- pEC50 (CLL): 8.52
- pIC50 [1]: 8.24
- pEC50 (RS4;11 cells): 8.10
- pIC50 (Toledo): 7.01
- pIC50 (Granta): 7.37
- activity to Mcl-1 (Mcl-1): no activity
- pIC50 (MV411): 7.70
- maximal tumor growth inhibition (RS4;11 xenografts): 95%
- tumor growth delay (RS4;11 xenografts): 152%

Structure (SMILES): CC1(C)CCC(c2ccc(Cl)cc2)=C(CN2CCN(c3ccc(C(=O)NS(=O)(=O)c4ccc(N[C@H](CCN5CCOCC5)CSc5ccccc5)c(S(=O)(=O)C(F)(F)F)c4)cc3)CC2)C1 [ABT-263]
- pIC50 (SCLC H146 cell line): 6.96
- pIC50 (H889; Homo sapiens, NCI-H889): 7.49
- TGI (H345 xenograft): 80%
- treated tumors indicating at least a 50% reduction in tumor volume (H345 xenograft): 20%
- pKi (Bcl-w): ≥ 9.00
- number of circulating platelets (circulating platelets): rapid, concentration-dependent decrease in the number of circulating platelets
- tumor regression [2]: complete tumor regressions
- pIC50 (H1963; Homo sapiens, NCI-H1963): 7.38
- pIC50 (H146; Homo sapiens, NCI-H146): 7.55

Structure (SMILES): CN(C)CC[C@H](CSc1ccccc1)Nc1ccc(S(=O)(=O)NC(=O)c2ccc(N3CCN(Cc4ccccc4-c4ccc(Cl)cc4)CC3)cc2)cc1[N+](=O)[O-] [ABT-737]
- aqueous solubility [3]: low aqueous solubility
- oral bioavailability [4]: not orally bioavailable

Structure (SMILES): N.N.[Cl][Pt][Cl] [Cisplatin, reference compound]
- pIC50 (H889): 5.15
- pIC50 (H1963): 5.78
- pIC50 (H146): 5.34

Structure (SMILES): CC1(C)CCC(CN2CCN(c3ccc(C(=O)NS(=O)(=O)c4ccc(NCC5CCOCC5)c([N+](=O)[O-])c4)c(N4CCCOc5nc6[nH]ccc6cc54)c3)CC2)=C(c2ccc(Cl)cc2)C1 [Example 2, 4-(4-((4′-chloro-5,5-dimethyl-3,4,5,6-tetrahydro-[1,1′-biphenyl]-2-yl)methyl)piperazin-1-yl)-2-(3,4-dihydro-2H-pyrrolo[3′,2′:5,6]pyrido[2,3-b][1,4]oxazepin-1(7H)-yl)-N-((3-nitro-4-(((tetrahydro-2H-pyran-4-yl)methyl)amino)phenyl)sulfonyl)benzamide]
- pIC50 [1]: 9.92
- AUC(0-t) [5]: 9300 ng·h/mL
- bioavailability [5]: 49%
- half-life [5]: 4.3 h
- pIC50 (H889; Homo sapiens, NCI-H889): 9.00
- pIC50 (Toledo): 8.09
- pIC50 (Granta): 8.46
- pIC50 (MV411): 8.80
- pIC50 (H1963; Homo sapiens, NCI-H1963): 8.25
- pIC50 (H146; Homo sapiens, NCI-H146): 7.19

Structure (SMILES): CC1(C)CCC(CN2CCN(c3ccc(C(=O)NS(=O)(=O)c4ccc(NCC5(F)CCOCC5)c([N+](=O)[O-])c4)c(N4CCCOc5nc6[nH]ccc6cc54)c3)CC2)=C(c2ccc(Cl)cc2)C1 [Example 3, 4-(4-((4′-chloro-5,5-dimethyl-3,4,5,6-tetrahydro-[1,1′-biphenyl]-2-yl)methyl)piperazin-1-yl)-2-(3,4-dihydro-2H-pyrrolo[3′,2′:5,6]pyrido[2,3-b][1,4]oxazepin-1(7H)-yl)-N-((4-(((4-fluorotetrahydro-2H-pyran-4-yl)methyl)amino)-3-nitrophenyl)sulfonyl)benzamide]
- pIC50 [1]: > 10.00
- AUC(0-t) [5]: 4160 ng·h/mL
- bioavailability [5]: 30%
- half-life [5]: 2.6 h
- pIC50 (H889; Homo sapiens, NCI-H889): 9.05
- pIC50 (H1963; Homo sapiens, NCI-H1963): 8.38
- pIC50 (H146; Homo sapiens, NCI-H146): 7.37

Structure (SMILES): CC1(C)CCC(CN2CCN(c3ccc(C(=O)NS(=O)(=O)c4ccc(NC[C@@H]5COCCO5)c([N+](=O)[O-])c4)c(N4CCCOc5nc6[nH]ccc6cc54)c3)CC2)=C(c2ccc(Cl)cc2)C1 [Example 8, 4-(4-[[2-(4-chlorophenyl)-4,4-dimethylcyclohex-1-en-1-yl]methyl]piperazin-1-yl)-N-[4-([[(2R)-1,4-dioxan-2-yl]methyl]amino)-3-nitrobenzenesulfonyl]-2-[14-oxa-2,4,10-triazatricyclo[7.5.0.0^[3,7]]tetradeca-1(9),2,5,7-tetraen-10-yl]benzamide]
- AUClast(h * ng/mL) [5]: 5,714 h * ng/mL
- Bioavailabilty [5]: 44%
- t ½ [5]: 2.3 h
- pIC50 (H889): 9.15
- pIC50 (H1963): 8.28
- pIC50 (H146): 7.30

Structure (SMILES): CC1(C)CCC(CN2CCN(c3ccc(C(=O)NS(=O)(=O)c4ccc(NC[C@H]5COCCO5)c([N+](=O)[O-])c4)c(N4CCCOc5nc6[nH]ccc6cc54)c3)CC2)=C(c2ccc(Cl)cc2)C1 [Example 9, 4-(4-[[2-(4-chlorophenyl)-4,4-dimethylcyclohex-1-en-1-yl]methyl]piperazin-1-yl)-N-[4-([[(2S)-1,4-dioxan-2-yl]methyl]amino)-3-nitrobenzenesulfonyl]-2-[14-oxa-2,4,10-triazatricyclo[7.5.0.0^[3,7]]tetradeca-1(9),2,5,7-tetraen-10-yl]benzamide]
- AUClast(h * ng/mL) [5]: 8,168 h * ng/mL
- Bioavailabilty [5]: 64%
- t ½ [5]: 2.3 h
- pIC50 (H889): 9.15
- pIC50 (H1963): 8.33
- pIC50 (H146): 7.48
